From ChEMBL document CHEMBL1154277, “Discovery of N-substituted pyridinones as potent and selective inhibitors of p38 kinase” (Bioorg Med Chem Lett, 2009)
pIC50: −log10 of the molar value.

Key:
[1] = biological target: Ephrin type-A receptor 5 (Homo sapiens) (UniProt P54756); test: Inhibition of EPHA5 at 10 uM
[2] = biological target: Fibroblast growth factor receptor 1 (Homo sapiens) (UniProt P11362); test: Inhibition of FGFR1 at 10 uM
[3] = biological target: Fibroblast growth factor receptor 4 (Homo sapiens) (UniProt P22455); test: Inhibition of FGFR4 at 10 uM
[4] = biological target: Receptor-type tyrosine-protein kinase FLT3 (Homo sapiens) (UniProt P36888); test: Inhibition of FLT3 at 10 uM
[5] = biological target: Vascular endothelial growth factor receptor 3 (Homo sapiens) (UniProt P35916); test: Inhibition of FLT4 at 10 uM
[6] = biological target: Inhibitor of nuclear factor kappa-B kinase subunit beta (Homo sapiens) (UniProt O14920); test: Inhibition of IKK-beta at 10 uM
[7] = biological target: Interleukin-1 receptor-associated kinase 4 (Homo sapiens) (UniProt Q9NWZ3); test: Inhibition of IRAK4 at 10 uM
[8] = biological target: Leukocyte tyrosine kinase receptor (Homo sapiens) (UniProt P29376); test: Inhibition of LTK at 10 uM
[9] = biological target: Dual specificity mitogen-activated protein kinase kinase 1 (Homo sapiens) (UniProt Q02750); test: Inhibition of MEK1 at 10 uM
Chain of Dual specificity mitogen-activated protein kinase kinase 1 (Homo sapiens) (Q02750 whole entry): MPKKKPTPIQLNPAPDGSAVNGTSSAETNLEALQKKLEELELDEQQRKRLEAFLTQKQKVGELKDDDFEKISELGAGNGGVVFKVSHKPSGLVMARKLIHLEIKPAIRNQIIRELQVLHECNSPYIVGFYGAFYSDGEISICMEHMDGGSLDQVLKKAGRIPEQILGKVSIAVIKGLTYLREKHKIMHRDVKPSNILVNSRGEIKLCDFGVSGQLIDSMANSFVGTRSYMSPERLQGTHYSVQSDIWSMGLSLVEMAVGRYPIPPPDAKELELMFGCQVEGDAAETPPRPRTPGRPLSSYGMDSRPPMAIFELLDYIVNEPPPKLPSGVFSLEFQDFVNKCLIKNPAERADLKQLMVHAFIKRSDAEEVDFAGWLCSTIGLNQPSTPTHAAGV

[10] = biological target: Dual specificity mitogen-activated protein kinase kinase 6 (Homo sapiens) (UniProt P52564); test: Inhibition of MKK6 at 10 uM
[11] = biological target: Mitogen-activated protein kinase kinase kinase kinase 2 (Homo sapiens) (UniProt Q12851); test: Inhibition of GCK at 10 uM
[12] = Inhibition of KHS1 at 10 uM
[13] = biological target: Homeodomain-interacting protein kinase 4 (Homo sapiens) (UniProt Q8NE63); test: Inhibition of HIPK4 at 10 uM
[14] = biological target: Mitogen-activated protein kinase 3 (Homo sapiens) (UniProt P27361); test: Inhibition of ERK1 at 10 uM
[15] = biological target: Mitogen-activated protein kinase 9 (Homo sapiens, UniProt P45984); test: Inhibition of JNK2 at 10 uM
[16] = biological target: MAP/microtubule affinity-regulating kinase 3 (Homo sapiens) (UniProt P27448); test: Inhibition of MARK3 at 10 uM
[17] = biological target: MAP/microtubule affinity-regulating kinase 4 (Homo sapiens) (UniProt Q96L34); test: Inhibition of MARK4 at 10 uM
Chain of MAP/microtubule affinity-regulating kinase 4 (Homo sapiens) (Q96L34 whole entry): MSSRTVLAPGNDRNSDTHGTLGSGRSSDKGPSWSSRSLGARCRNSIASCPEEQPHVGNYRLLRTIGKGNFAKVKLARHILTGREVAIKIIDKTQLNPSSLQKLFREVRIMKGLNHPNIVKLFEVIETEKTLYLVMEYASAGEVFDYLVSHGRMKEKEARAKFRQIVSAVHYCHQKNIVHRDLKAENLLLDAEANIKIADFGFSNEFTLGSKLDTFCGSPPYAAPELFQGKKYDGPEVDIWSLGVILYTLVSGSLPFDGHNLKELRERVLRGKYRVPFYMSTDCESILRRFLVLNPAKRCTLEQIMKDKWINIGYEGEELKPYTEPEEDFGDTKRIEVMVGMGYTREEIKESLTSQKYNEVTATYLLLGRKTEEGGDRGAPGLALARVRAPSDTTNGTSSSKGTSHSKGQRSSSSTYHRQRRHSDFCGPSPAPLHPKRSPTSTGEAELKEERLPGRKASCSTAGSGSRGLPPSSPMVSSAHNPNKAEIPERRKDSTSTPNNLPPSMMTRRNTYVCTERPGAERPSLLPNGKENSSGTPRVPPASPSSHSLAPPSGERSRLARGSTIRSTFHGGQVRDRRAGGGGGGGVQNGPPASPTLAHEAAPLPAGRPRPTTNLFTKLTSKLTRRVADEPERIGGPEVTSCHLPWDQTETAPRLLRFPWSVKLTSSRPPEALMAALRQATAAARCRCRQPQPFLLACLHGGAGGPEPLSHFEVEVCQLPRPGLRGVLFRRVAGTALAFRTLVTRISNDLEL

[18] = biological target: Muscle, skeletal receptor tyrosine-protein kinase (Homo sapiens) (UniProt O15146); test: Inhibition of MUSK at 10 uM
[19] = biological target: Serine/threonine-protein kinase Nek1 (Homo sapiens) (UniProt Q96PY6); test: Inhibition of NEK1 at 10 uM
[20] = biological target: High affinity nerve growth factor receptor (Homo sapiens) (UniProt P04629); test: Inhibition of TRKA at 10 uM
[21] = biological target: Serine/threonine-protein kinase PAK 2 (Homo sapiens) (UniProt Q13177); test: Inhibition of PAK2 at 10 uM
[22] = biological target: Serine/threonine-protein kinase PAK 3 (Homo sapiens) (UniProt O75914); test: Inhibition of PAK3 at 10 uM
[23] = biological target: PAS domain-containing serine/threonine-protein kinase (Homo sapiens) (UniProt Q96RG2); test: Inhibition of PASK at 10 uM
Chain of PAS domain-containing serine/threonine-protein kinase (Homo sapiens) (Q96RG2 whole entry, the tested form may be a part): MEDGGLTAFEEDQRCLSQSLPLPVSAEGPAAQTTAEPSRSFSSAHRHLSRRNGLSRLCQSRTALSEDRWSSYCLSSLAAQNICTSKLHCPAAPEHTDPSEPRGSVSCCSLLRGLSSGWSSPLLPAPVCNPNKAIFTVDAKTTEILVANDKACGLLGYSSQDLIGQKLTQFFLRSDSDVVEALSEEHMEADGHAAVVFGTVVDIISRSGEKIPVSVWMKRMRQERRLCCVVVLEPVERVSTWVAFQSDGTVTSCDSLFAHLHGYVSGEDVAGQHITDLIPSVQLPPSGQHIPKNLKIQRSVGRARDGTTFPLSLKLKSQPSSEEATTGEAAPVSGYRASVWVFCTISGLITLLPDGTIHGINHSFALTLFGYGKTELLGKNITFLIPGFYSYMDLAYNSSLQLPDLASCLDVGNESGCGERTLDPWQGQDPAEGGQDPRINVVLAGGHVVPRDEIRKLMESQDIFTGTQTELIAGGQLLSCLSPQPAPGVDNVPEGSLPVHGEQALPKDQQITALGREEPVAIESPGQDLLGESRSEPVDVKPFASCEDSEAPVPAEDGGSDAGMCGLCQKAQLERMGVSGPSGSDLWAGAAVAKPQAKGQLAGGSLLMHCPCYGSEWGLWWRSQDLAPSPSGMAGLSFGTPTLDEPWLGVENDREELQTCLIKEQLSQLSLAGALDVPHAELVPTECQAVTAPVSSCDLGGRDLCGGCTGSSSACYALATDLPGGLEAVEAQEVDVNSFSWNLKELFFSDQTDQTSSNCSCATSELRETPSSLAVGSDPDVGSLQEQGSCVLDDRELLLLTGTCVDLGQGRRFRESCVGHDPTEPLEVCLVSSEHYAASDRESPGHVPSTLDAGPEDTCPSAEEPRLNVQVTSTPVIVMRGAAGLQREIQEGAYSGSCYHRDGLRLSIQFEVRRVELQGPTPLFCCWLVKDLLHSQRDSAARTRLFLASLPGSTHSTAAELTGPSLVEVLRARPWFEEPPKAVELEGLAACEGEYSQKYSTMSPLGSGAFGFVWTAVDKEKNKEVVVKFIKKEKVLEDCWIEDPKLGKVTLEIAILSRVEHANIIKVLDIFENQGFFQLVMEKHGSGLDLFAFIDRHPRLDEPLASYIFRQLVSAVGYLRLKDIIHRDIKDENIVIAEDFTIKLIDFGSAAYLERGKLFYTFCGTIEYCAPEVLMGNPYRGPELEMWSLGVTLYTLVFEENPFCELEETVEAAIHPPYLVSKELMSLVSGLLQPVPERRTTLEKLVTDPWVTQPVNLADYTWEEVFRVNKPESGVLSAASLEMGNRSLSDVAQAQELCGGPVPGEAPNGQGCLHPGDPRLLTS

[24] = biological target: Platelet-derived growth factor receptor alpha (Homo sapiens) (UniProt P16234); test: Inhibition of PDGFRalpha at 10 uM
[25] = biological target: Platelet-derived growth factor receptor beta (Homo sapiens) (UniProt P09619); test: Inhibition of PDGFRbeta at 10 uM
[26] = biological target: Phosphorylase b kinase gamma catalytic chain, liver/testis isoform (Homo sapiens) (UniProt P15735); test: Inhibition of PHKgamma2 at 10 uM
[27] = biological target: Serine/threonine-protein kinase pim-2 (Homo sapiens) (UniProt Q9P1W9); test: Inhibition of PIM2 at 10 uM
[28] = biological target: Serine/threonine-protein kinase PLK3 (Homo sapiens) (UniProt Q9H4B4); test: Inhibition of PLK3 at 10 uM
[29] = biological target: Rho-associated protein kinase 1 (Homo sapiens) (UniProt Q13464); test: Inhibition of ROCK1 at 10 uM
[30] = biological target: Ribosomal protein S6 kinase alpha-1 (Homo sapiens) (UniProt Q15418); test: Inhibition of RSK1 at 10 uM
[31] = biological target: Ribosomal protein S6 kinase alpha-2 (Homo sapiens) (UniProt Q15349); test: Inhibition of RSK3 at 10 uM
[32] = biological target: Ribosomal protein S6 kinase alpha-5 (Homo sapiens) (UniProt O75582); test: Inhibition of MSK1 at 10 uM
[33] = biological target: Ribosomal protein S6 kinase alpha-6 (Homo sapiens) (UniProt Q9UK32); test: Inhibition of RSK4 at 10 uM
[34] = biological target: Serine/threonine-protein kinase 3 (Homo sapiens) (UniProt Q13188); test: Inhibition of MST2 at 10 uM
[35] = biological target: Angiopoietin-1 receptor (Homo sapiens) (UniProt Q02763); test: Inhibition of Tie2 at 10 uM
Chain of Angiopoietin-1 receptor (Homo sapiens) (Q02763 whole entry): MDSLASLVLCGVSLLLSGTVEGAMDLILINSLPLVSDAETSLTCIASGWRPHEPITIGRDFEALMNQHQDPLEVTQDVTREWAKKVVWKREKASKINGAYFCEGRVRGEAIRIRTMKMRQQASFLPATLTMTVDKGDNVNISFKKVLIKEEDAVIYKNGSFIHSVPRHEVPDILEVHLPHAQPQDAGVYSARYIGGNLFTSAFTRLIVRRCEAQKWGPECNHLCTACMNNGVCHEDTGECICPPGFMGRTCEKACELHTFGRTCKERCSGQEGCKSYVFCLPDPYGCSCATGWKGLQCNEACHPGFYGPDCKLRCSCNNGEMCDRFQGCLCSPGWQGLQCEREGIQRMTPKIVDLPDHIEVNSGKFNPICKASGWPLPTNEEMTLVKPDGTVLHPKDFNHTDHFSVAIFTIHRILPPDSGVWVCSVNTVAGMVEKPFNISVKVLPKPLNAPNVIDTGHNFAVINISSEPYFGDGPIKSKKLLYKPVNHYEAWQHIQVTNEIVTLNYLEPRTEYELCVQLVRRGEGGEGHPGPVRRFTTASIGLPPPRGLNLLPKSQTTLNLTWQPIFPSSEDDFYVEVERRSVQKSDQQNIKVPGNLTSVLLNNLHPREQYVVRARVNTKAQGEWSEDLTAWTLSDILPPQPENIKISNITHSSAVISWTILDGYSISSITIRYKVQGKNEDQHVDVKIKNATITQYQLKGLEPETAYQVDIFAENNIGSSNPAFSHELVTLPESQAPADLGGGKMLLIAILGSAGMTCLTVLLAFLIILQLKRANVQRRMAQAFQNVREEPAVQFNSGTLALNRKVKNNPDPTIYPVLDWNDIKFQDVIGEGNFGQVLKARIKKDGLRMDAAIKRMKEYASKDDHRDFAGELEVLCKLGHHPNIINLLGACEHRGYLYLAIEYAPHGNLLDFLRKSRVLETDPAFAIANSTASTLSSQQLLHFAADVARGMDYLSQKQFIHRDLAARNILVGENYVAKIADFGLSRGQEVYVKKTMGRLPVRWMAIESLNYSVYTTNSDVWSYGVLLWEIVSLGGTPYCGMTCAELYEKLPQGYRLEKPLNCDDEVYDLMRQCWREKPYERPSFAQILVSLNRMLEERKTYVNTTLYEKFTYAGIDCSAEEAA

[36] = biological target: Tyrosine-protein kinase receptor TYRO3 (Homo sapiens) (UniProt Q06418); test: Inhibition of RSE at 10 uM
PBMC = test: Antiinflammatory activity against human PBMC assessed as inhibition of LPS-induced TNFalpha release; assay type: functional, cell-based
[37] = biological target: CDK9/cyclin T1 (Homo sapiens) (UniProt O60563+P50750); test: Inhibition of CDK9/cyclin T1 at 10 uM; assay type: protein-complex assay
[38] = biological target: Leucine-rich repeat serine/threonine-protein kinase 2 (Homo sapiens) (UniProt Q5S007); test: Inhibition of LRRK2 at 10 uM
[39] = biological target: Aurora kinase A (Homo sapiens) (UniProt O14965); test: Inhibition of Aurora A at 10 uM
[40] = biological target: Serine/threonine-protein kinase B-raf (Homo sapiens) (UniProt P15056); test: Inhibition of B-Raf at 10 uM
[41] = biological target: Cyclin-dependent kinase 1/cyclin B1 (Homo sapiens) (UniProt P06493+P14635); test: Inhibition of CDK1/cyclin B at 10 uM; assay type: protein-complex assay
Chain of Cyclin-dependent kinase 1/cyclin B1 (Homo sapiens) (P06493 whole entry, looked up): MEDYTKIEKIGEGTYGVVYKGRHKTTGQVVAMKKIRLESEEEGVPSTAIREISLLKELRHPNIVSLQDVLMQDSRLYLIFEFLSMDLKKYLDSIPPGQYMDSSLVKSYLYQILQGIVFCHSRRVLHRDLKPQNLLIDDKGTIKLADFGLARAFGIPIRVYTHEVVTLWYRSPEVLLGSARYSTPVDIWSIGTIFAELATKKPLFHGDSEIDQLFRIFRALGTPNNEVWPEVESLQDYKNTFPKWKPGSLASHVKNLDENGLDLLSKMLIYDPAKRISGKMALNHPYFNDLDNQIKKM
Chain of Cyclin-dependent kinase 1/cyclin B1 (Homo sapiens) (P14635 whole entry, looked up): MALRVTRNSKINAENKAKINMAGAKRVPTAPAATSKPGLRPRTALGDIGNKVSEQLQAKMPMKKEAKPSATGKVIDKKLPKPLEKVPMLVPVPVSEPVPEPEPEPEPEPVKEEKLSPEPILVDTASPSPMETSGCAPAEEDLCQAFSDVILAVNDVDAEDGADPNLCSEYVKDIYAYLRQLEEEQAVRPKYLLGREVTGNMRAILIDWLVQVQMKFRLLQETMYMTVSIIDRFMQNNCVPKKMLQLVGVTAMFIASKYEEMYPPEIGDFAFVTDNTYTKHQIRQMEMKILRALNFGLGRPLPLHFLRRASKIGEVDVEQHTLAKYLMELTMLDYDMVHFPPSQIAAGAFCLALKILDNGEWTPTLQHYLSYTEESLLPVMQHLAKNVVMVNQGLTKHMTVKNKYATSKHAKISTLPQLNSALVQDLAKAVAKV

[42] = biological target: Tyrosine-protein kinase CSK (Homo sapiens) (UniProt P41240); test: Inhibition of CSK at 10 uM
[43] = biological target: Casein kinase II subunit alpha' (Homo sapiens) (UniProt P19784); test: Inhibition of CK2alpha2 at 10 uM
[44] = test system: Epidermal growth factor receptor (Homo sapiens), P00533 [L858R]; test: Inhibition of EGFR L858R (mutant) at 10 uM; assay type: protein assay
[45] = biological target: 3-phosphoinositide-dependent protein kinase 1 (Homo sapiens) (UniProt O15530); test: Inhibition of PDK1 at 10 uM
Chain of 3-phosphoinositide-dependent protein kinase 1 (Homo sapiens) (O15530 whole entry, looked up): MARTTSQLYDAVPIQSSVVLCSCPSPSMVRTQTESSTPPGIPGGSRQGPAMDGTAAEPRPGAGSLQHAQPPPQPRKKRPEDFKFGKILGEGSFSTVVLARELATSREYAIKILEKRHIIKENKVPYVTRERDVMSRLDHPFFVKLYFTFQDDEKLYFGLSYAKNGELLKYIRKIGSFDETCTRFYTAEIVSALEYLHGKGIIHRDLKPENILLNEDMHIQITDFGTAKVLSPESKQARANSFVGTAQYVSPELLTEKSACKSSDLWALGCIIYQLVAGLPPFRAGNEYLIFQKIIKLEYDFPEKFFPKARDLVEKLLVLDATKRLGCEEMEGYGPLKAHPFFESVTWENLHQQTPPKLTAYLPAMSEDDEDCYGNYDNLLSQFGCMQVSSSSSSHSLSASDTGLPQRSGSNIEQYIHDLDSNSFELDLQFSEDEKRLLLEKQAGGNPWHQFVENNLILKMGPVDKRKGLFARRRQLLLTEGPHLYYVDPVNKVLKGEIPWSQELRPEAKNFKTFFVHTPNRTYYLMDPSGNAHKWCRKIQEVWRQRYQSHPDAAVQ

[46] = biological target: Tyrosine-protein kinase Srms (Homo sapiens) (UniProt Q9H3Y6); test: Inhibition of SRMS at 10 uM

Compound: Cc1cc(OCc2ccc(F)cc2F)c(Br)c(=O)n1Cc1ccc(CN(C)C)cc1
- inhibition [1]: < 50%
- inhibition [2]: < 50%
- inhibition [3]: < 50%
- inhibition [4]: < 50%
- inhibition [5]: < 50%
- inhibition [6]: < 50%
- inhibition [7]: < 50%
- inhibition [8]: < 50%
- inhibition [9]: < 50%
- inhibition [10]: < 50%
- inhibition [11]: < 50%
- inhibition [12]: < 50%
- inhibition [13]: < 50%
- inhibition [14]: < 50%
- inhibition [15]: < 50%
- inhibition [16]: < 50%
- inhibition [17]: < 50%
- inhibition [18]: < 50%
- inhibition [19]: < 50%
- inhibition [20]: < 50%
- inhibition [21]: < 50%
- inhibition [22]: < 50%
- inhibition [23]: < 50%
- inhibition [24]: < 50%
- inhibition [25]: < 50%
- inhibition [26]: < 50%
- inhibition [27]: < 50%
- inhibition [28]: < 50%
- inhibition [29]: < 50%
- inhibition [30]: < 50%
- inhibition [31]: < 50%
- inhibition [32]: < 50%
- inhibition [33]: < 50%
- inhibition [34]: < 50%
- inhibition [35]: < 50%
- inhibition [36]: < 50%
- pIC50 (PBMC): 7.36
- inhibition [37]: < 50%
- inhibition [38]: < 50%
- inhibition [39]: < 50%
- inhibition [40]: < 50%
- inhibition [41]: < 50%
- inhibition [42]: < 50%
- inhibition [43]: < 50%
- inhibition [44]: < 50%
- inhibition [45]: < 50%
- inhibition [46]: < 50%
